“Also recorded” adds a separate entry of the source.
Assays:
isolated aorta = assay: Experiment 3 Relaxing activity on the isolated aorta (30 mM KCl contracted); set-up: species or system Japanese white rabbit; conditions: for EC50: Oryctolagus cuniculus, 30 mM KCl contraction, maximum relaxation by papaverine = 100%, read-out: EC50 (concentration for 50% relaxation); for relaxing / vasodilating activity on isolated aorta (in words): Table 8, comparison with nifedipine and nicardipine hydrochloride, etc. where stated
[1] = tested on: Spontaneously hypertensive male rats; assay: Experiment 1-1 Hypotensive activity (oral, conscious spontaneously hypertensive rats); format: in vivo, rat; conditions: for Recovering time / Time for recovering 1/2 of max. hypotension / Time until reaching to max. hypotension / Maximum hypotension: 10 mg/kg oral; for Maximum hypotension: mean blood pressure; for hypotensive activity (in words): Table 4, comparison with nifedipine and nicardipine hydrochloride where stated
isolated heart = assay: Experiment 2-1 Activity on isolated heart; set-up: species or system Japanese white rabbit; conditions: for activation at 3 µg/heart / inhibition at 3 µg/heart, 3 µg/heart / inhibition at 3 µg/heart: Oryctolagus cuniculus, 3 μg/heart; for activation at 3 µg/heart: read-out: Increase of coronary perfusion; for inhibition at 3 µg/heart, 3 µg/heart: read-out: Inhibitory rate of systole; for inhibition at 3 µg/heart: read-out: Reducing rate of heart pulse
Experimental: Japanese white rabbit (weighing 2.2-2.5 kg) was anesthetized by introvenous injection of nembutal (20 mg/kg) and then sacrificed by bleeding from common carotid artery. […] After stabilizing the heart preparation for 90 minutes, the test compound was administered. There were measured the perfusion volume with a drop-counting meter (ET-600G type, manufactured by Nippon Koden K.K.) and the heart pulse and the contractility via a force-displacement transducer (FD pick up, SB-IT type, manufactured by Nippon Koden K.K.) (for measuring heart pulse, an instant pulse meter (AT-601G type, minufactured by Nippon Koden K.K.) being further used).

SMILES	EC50 (isolated aorta) [nM]	relaxing / vasodilating activity on isolated aorta (in words) (isolated aorta)	Recovering time [1] [h]	Time for recovering 1/2 of max. hypotension [1] [h]	Time until reaching to max. hypotension [1] [min]	Maximum hypotension [1] [mmHg]	hypotensive activity (in words) [1]	activation at 3 µg/heart (isolated heart) [%]	inhibition at 3 µg/heart, 3 µg/heart (isolated heart) [%]	inhibition at 3 µg/heart (isolated heart) [%]	inhibitions on the heart pulse and contactility (in words) (isolated heart; Table 6)	coronary vasodilating activity (in words) (isolated heart; Table 6, comparison with nifedipine and nicardipine hydrochloride, etc.)
CCCCCCCOC(=O)C1=C(C)NC(C)=C(C(=O)NC(C)C)C1c1ccccc1[N+](=O)[O-] (centres unmarked) [Example 1, n-heptyl 2,6-dimethyl-3-isopropylaminocarbonyl-4-(o-nitrophenyl)-1,4-dihydropyridine-5-carboxylate]	580	somewhat weak vasodilating activity	> 5.0	> 5.0	30	78	the same or more potent activity with longer duration; also recorded: potent hypotensive activity	25	40	15	moderate inhibitions on the heart pulse and contactility	
COC(=O)C1=C(C)NC(C)=C(C(=O)NC(C)C)C1c1ccccc1[N+](=O)[O-] (centres unmarked) [Example 5, methyl 2,6-dimethyl-3-isopropylaminocarbonyl-4-(o-nitrophenyl)-1,4-dihydropyridine-5-carboxylate]	20	the same or more potent activity	> 5.0	5.0	15	70	the same or more potent activity with longer duration	28	15	25		the same or more potent coronary vasodilating activity with longer duration
CCCCOC(=O)C1=C(C)NC(C)=C(C(=O)NC(C)C)C1c1ccccc1[N+](=O)[O-] (centres unmarked) [Example 6, n-butyl 2,6-dimethyl-3-isopropylaminocarbonyl-4-(o-nitrophenyl)-1,4-dihydropyridine-5-carboxylate]	12	the same or more potent activity	5.0	3.5	15	57		35	25	13		
CCCCCOC(=O)C1=C(C)NC(C)=C(C(=O)NC(C)C)C1c1ccccc1[N+](=O)[O-] (centres unmarked) [Example 8, n-pentyl 2,6-dimethyl-3-isopropylaminocarbonyl-4-(o-nitrophenyl)-1,4-dihydropyridine-5-carboxylate]	30	the same or more potent activity	5.0	4.0	15	30		35	13	5		
CCOC(=O)C1=C(C)NC(C)=C(C(=O)NC(C)C)C1c1ccccc1[N+](=O)[O-] (centres unmarked) [Example 43]	18	the same or more potent activity	5.0	2.5	15	68		35	35	40		
CCCOC(=O)C1=C(C)NC(C)=C(C(=O)NC(C)C)C1c1ccccc1[N+](=O)[O-] (centres unmarked) [Example 44]	17	the same or more potent activity	4.0	2.5	15	60		30	20	16		
CC1=C(C(=O)NC(C)C)C(c2ccccc2[N+](=O)[O-])C(C(=O)OC(C)C)=C(C)N1 (centres unmarked) [Example 45]	170		1.5	0.5	15	15		0	0	0		
CC1=C(C(=O)NC(C)C)C(c2ccccc2[N+](=O)[O-])C(C(=O)OCC(C)C)=C(C)N1 (centres unmarked) [Example 46]	70	the same or more potent activity	1.5	0.5	15	10		14	9	3		
CC1=C(C(=O)NC(C)C)C(c2ccccc2[N+](=O)[O-])C(C(=O)OCCC(C)C)=C(C)N1 (centres unmarked) [Example 47]	20	the same or more potent activity	3.0	2.0	30	32		35	5	11		
CC1=C(C(=O)NC(C)C)C(c2ccccc2[N+](=O)[O-])C(C(=O)OCCCC(C)C)=C(C)N1 (centres unmarked) [Example 51]	130		> 5.0	3.0	30	40		40	30	25		
CCCCCCCCCCOC(=O)C1=C(C)NC(C)=C(C(=O)NC(C)C)C1c1ccccc1[N+](=O)[O-] (centres unmarked) [Example 52]	420		1.0	0.5	15	12		20	45	15	moderate inhibitions on the heart pulse and contactility	
CCCCOC(=O)C1=C(C)NC(C)=C(C(=O)NC(C)C)C1c1cccc([N+](=O)[O-])c1 (centres unmarked) [Example 64]	150		5.0	2.0	30	57		12	0	4		
CC1=C(C(=O)NC(C)C)C(c2cccc([N+](=O)[O-])c2)C(C(=O)OCC(C)C)=C(C)N1 (centres unmarked) [Example 65]	130		2.5	1.5	30	50		8	5	8		
CCCCOC(=O)C1=C(C)NC(C)=C(C(=O)NCCC)C1c1cccc([N+](=O)[O-])c1 (centres unmarked) [Example 68]	100		1.0	0.5	15	5		29	6	11		

Reference: patent US4874773A, “3-Aminocarbonyl-1,4-dihydropyridine-5-carboxylic acid compounds, and pharmaceutical composition containing the same” (priority 1985, dated 1989)
